Experimental data taken from patent US20260070945A1, “MACROCYCLIC IMMUNOMODULATORS” (Bristol-Myers Squibb Company, priority 2022, published 2026).
*1 amine or outer side, *2 acyl side, *3 side chain or, on linkers, in order; H or OH if unused. Where a SMILES comes first, the peptide text is derived from it. Bridges are numbered along the chain shown (N, C = ends). [ ]: non-standard residue; d: D form. The star is where a group is joined. ξ: configuration not given here. Phe(4-CONH2) = NC(=O)c1ccc(C[C@H](N)C(=O)O)cc1; Phe(4-COOH) = N[C@@H](Cc1ccc(C(=O)O)cc1)C(=O)O; Bip = N[C@@H](Cc1ccc(-c2ccccc2)cc1)C(=O)O; NH(CH2)14COOH = O=C(O)CCCCCCCCCCCCCCN*; Phe(3-Me) = Cc1cccc(C[C@H](N)C(=O)O)c1; γGlu = O=C(O)[C@H](CCC(=O)[*:2])N[*:1]; Val(3-OH) = CC(C)(O)[C@H](N)C(=O)O; aIle = CC[C@@H](C)[C@H](N)C(=O)O; 4Pal = N[C@@H](Cc1ccncc1)C(=O)O; Cha = N[C@@H](CC1CCCCC1)C(=O)O; Cit = NC(=O)NCCC[C@H](N)C(=O)O; Ile(3ξ) = CCC(C)[C@H](N)C(=O)O; Thr(3ξ) = CC(O)[C@H](N)C(=O)O; Carboxymethyl = O=C(O)C*; NMeA = CN[C@@H](C)C(=O)O; Orn = NCCC[C@H](N)C(=O)O; Aun = NCCCCCCCCCCC(=O)O; Dab = NCC[C@H](N)C(=O)O; AEEA = NCCOCCOCC(=O)O

What follows are compounds tested against T1, PD-1/PD-L1 interaction (PE-labeled human PD-L1-Ig binding to Jurkat cell line over-expressing human PD-1) (Homo sapiens, UniProt Q15116) (assay: Jurkat-PD-1 Cell Binding High-Content Screening Assay (CBA)). Settings: Jurkat-hPD-1 cells, PE-labeled PD-L1-Ig 20 nM final; read-out: Jurkat HPD1 PDL1 IC50.
T1 construct: expressed in transfected cells; host or cells: Jurkat
How it was run: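 In this imaging assay, cells in 10% FCS medium see compound for 2 h at 37 °C and then labeled ligand at 20 nM final for 1 h. Paraformaldehyde fixation, Hoechst 33342 staining and dPBS washes precede image capture.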

T1 sequence (Q15116 25-288): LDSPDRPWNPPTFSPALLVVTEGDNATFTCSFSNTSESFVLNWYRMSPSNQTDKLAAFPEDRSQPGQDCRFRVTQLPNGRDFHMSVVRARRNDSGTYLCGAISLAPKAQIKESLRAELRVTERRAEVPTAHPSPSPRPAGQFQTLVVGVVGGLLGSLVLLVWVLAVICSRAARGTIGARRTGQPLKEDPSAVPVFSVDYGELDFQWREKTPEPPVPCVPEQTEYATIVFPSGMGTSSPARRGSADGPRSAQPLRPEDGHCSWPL

First: CC[C@@H](C)[C@@H]1NC(=O)[C@H](Cc2ccc(-c3ccccc3)cc2)NC(=O)[C@H](C(C)C)NC(=O)[C@H](Cc2c[nH]c3ccccc23)NC(=O)[C@H](CC(=O)O)NC(=O)[C@H](Cc2ccc(O)cc2)NC(=O)[C@H](CCCNC(N)=O)NC(=O)CSC[C@@H](C(=O)N[C@H](CCCCN)C(=O)NCCOCCOCC(=O)NCCCCCCCCCCC(=O)O)NC(=O)[C@H](CO)NC(=O)[C@H](C(C)C)NC(=O)[C@H](CC2CCCCC2)NC(=O)[C@H](CCN)NC(=O)[C@@H](CC(C)C)NC(=O)[C@H](C)N(C)C1=O [Example 2027] ({CH2CO}-[Cit]YDWV[Bip][aIle][NMeA][dL][Dab][Cha]VSC[dK][AEEA][Aun]-OH; thioether N-14)
Second: CCC(C)[C@@H]1NC(=O)[C@H](Cc2ccc(-c3ccccc3)cc2)NC(=O)[C@H](C(C)C)NC(=O)[C@H](Cc2c[nH]c3ccccc23)NC(=O)[C@H](CC(=O)O)NC(=O)[C@H](Cc2ccc(O)cc2)NC(=O)[C@H](Cc2ccncc2)NC(=O)CSC[C@@H](C(=O)N[C@@H](C)C(=O)NCCOCCOCC(=O)N[C@@H](CCCN)C(=O)NCCCCCCCCCCC(=O)O)NC(=O)[C@H](C(C)O)NC(=O)[C@H](C(C)C)NC(=O)[C@H](CC2CCCCC2)NC(=O)[C@H](CCN)NC(=O)[C@@H](CC(C)C)NC(=O)[C@H](C)N(C)C1=O (stereo partly drawn) [Example 2077] ({CH2CO}-[4Pal]YDWV[Bip][Ile(3ξ)][NMeA][dL][Dab][Cha]V[Thr(3ξ)]CA[AEEA][Orn][Aun]-OH; thioether N-14)
The IC50 of the first is 2.7-fold higher: 0.0386 µM for the first, 0.0141 µM for the second. The second is the more potent here.

Compared with Cc1cccc(C[C@@H]2NC(=O)[C@H](CC(=O)O)NC(=O)[C@H](Cc3ccc(C(=O)O)cc3)NC(=O)[C@H](Cc3ccc(OCC(=O)O)cc3)NC(=O)CSC[C@@H](C(=O)NCC(=O)N[C@@H](CC(=O)O)C(=O)NCCOCCOCC(=O)N[C@@H](CCC(=O)NCCOCCOCC(=O)NCCCCCCCCCCC(=O)O)C(=O)O)NC(=O)[C@H](CO)NC(=O)[C@H](C(C)C)NC(=O)[C@H](CC(C)C)NC(=O)[C@H](CC(N)=O)NC(=O)[C@@H](CC(C)C)NC(=O)[C@H](C)N(C)C(=O)[C@H](C(C)C)NC(=O)[C@H](Cc3ccc(-c4ccccc4)cc3)NC(=O)[C@H](CC(C)C)NC2=O)c1 [Example 1019] ({CH2CO}-Y(Carboxymethyl)[Phe(4-COOH)]D[Phe(3-Me)]L[Bip]V[NMeA][dL]NLVSCGD[AEEA][γGlu][AEEA][Aun]-OH; thioether N-14), Cc1cccc(C[C@@H]2NC(=O)[C@H](CC(=O)O)NC(=O)[C@H](Cc3ccc(C(=O)O)cc3)NC(=O)[C@H](Cc3ccc(OCC(=O)O)cc3)NC(=O)CSC[C@@H](C(=O)NCCOCCOCC(=O)NCCCCCCCCCCC(=O)O)NC(=O)[C@H](C(C)O)NC(=O)[C@H](C(C)C)NC(=O)[C@H](CC3CCCCC3)NC(=O)[C@H](CCN)NC(=O)[C@@H](CC(C)C)NC(=O)[C@H](C)N(C)C(=O)[C@H](CCC(N)=O)NC(=O)[C@H](Cc3ccc(-c4ccccc4)cc3)NC(=O)[C@H](C(C)C)NC2=O)c1 (stereo partly drawn) [Example 2284] ({CH2CO}-Y(Carboxymethyl)[Phe(4-COOH)]D[Phe(3-Me)]V[Bip]Q[NMeA][dL][Dab][Cha]V[Thr(3ξ)]C[AEEA][Aun]-OH; thioether N-14) is 2.5-fold lower in IC50: 0.0585 µM for the first, 0.0236 µM for the second.

Compared with CC(C)C[C@@H]1NC(=O)[C@H](Cc2c[nH]c3ccccc23)NC(=O)[C@H](CC(=O)O)NC(=O)[C@H](Cc2ccc(C(=O)O)cc2)NC(=O)[C@H](Cc2ccc(OCC(=O)O)cc2)NC(=O)CSC[C@@H](C(=O)N[C@@H](CCN)C(=O)NCCOCCOCC(=O)NCCCCCCCCCCC(=O)O)NC(=O)[C@H](Cc2cnc[nH]2)NC(=O)[C@H](C(C)C)NC(=O)[C@H](CC2CCCCC2)NC(=O)[C@H](CCN)NC(=O)[C@@H](CC(C)C)NC(=O)[C@H](C)N(C)C(=O)[C@H](C(C)C)NC(=O)[C@H](Cc2ccc(-c3ccccc3)cc2)NC1=O [Example 1130] ({CH2CO}-Y(Carboxymethyl)[Phe(4-COOH)]DWL[Bip]V[NMeA][dL][Dab][Cha]VHC[Dab][AEEA][Aun]-OH; thioether N-14), Cc1cccc(C[C@@H]2NC(=O)[C@H](CC(=O)O)NC(=O)[C@H](Cc3ccc(C(=O)O)cc3)NC(=O)[C@H](Cc3ccncc3)NC(=O)CSC[C@@H](C(=O)N[C@@H](CCN)C(=O)NCCOCCOCC(=O)NCCCCCCCCCCC(=O)O)NC(=O)[C@H](CCCN)NC(=O)[C@H](C(C)C)NC(=O)[C@H](CC3CCCCC3)NC(=O)[C@H](CCN)NC(=O)[C@@H](CC(C)C)NC(=O)[C@H](C)N(C)C(=O)[C@H](CCCNC(N)=O)NC(=O)[C@H](Cc3ccc(-c4ccccc4)cc3)NC(=O)[C@H](Cc3ccc(OCC(=O)O)cc3)NC2=O)c1 [Example 1406] ({CH2CO}-[4Pal][Phe(4-COOH)]D[Phe(3-Me)]Y(Carboxymethyl)[Bip][Cit][NMeA][dL][Dab][Cha]V[Orn]C[Dab][AEEA][Aun]-OH; thioether N-14) is 4.2-fold higher in IC50: 0.0123 µM for the first, 0.0511 µM for the second. The first is the more potent here.

CC(=O)NCCCC[C@@H]1NC(=O)[C@H](Cc2ccc(-c3ccccc3)cc2)NC(=O)[C@H](Cc2ccc(O)cc2)NC(=O)[C@H](Cc2cccc(C)c2)NC(=O)[C@H](CC(=O)O)NC(=O)[C@H](Cc2ccc(OCC(=O)O)cc2)NC(=O)[C@H](CCN)NC(=O)CSC[C@@H](C(=O)N[C@@H](CCN)C(=O)NCCCCCCCCCCC(=O)O)NC(=O)[C@H](C(C)O)NC(=O)[C@H](C(C)C)NC(=O)[C@H](CC2CCCCC2)NC(=O)[C@H](CCN)NC(=O)[C@@H](CC(C)C)NC(=O)[C@H](C)N(C)C1=O (stereo partly drawn) [Example 2421] ({CH2CO}-[Dab]Y(Carboxymethyl)D[Phe(3-Me)]Y[Bip]K(Ac)[NMeA][dL][Dab][Cha]V[Thr(3ξ)]C[Dab][Aun]-OH; thioether N-14) was tested, and the IC50 was 0.0146 µM.

Same assay, conditions: PE-labeled PD-L1-Ig 20 nM final, Jurkat-hPD-1 cells; read-out: Jurkat HPD1 PDL1 IC50

Compared with Cc1cccc(C[C@@H]2NC(=O)[C@H](CC(=O)O)NC(=O)[C@H](Cc3ccc(C(=O)O)cc3)NC(=O)[C@H](Cc3ccncc3)NC(=O)CSC[C@@H](C(=O)N[C@@H](CCN)C(=O)NCCOCCOCC(=O)NCCOCCOCC(=O)NCCCCCCCCCCC(=O)O)NC(=O)[C@H](CCC(=O)O)NC(=O)[C@H](C(C)C)NC(=O)[C@H](CC3CCCCC3)NC(=O)[C@H](CCN)NC(=O)[C@@H](CC(C)C)NC(=O)[C@H](C)N(C)C(=O)[C@H](CCC(=O)O)NC(=O)[C@H](Cc3ccc(-c4ccccc4)cc3)NC(=O)[C@H](Cc3ccc(C(N)=O)cc3)NC2=O)c1 [Example 2536] ({CH2CO}-[4Pal][Phe(4-COOH)]D[Phe(3-Me)][Phe(4-CONH2)][Bip]E[NMeA][dL][Dab][Cha]VEC[Dab][AEEA][AEEA][Aun]-OH; thioether N-14), CCC(C)[C@@H]1NC(=O)[C@H](Cc2ccc(-c3ccccc3)cc2)NC(=O)[C@H](C(C)C)NC(=O)[C@H](Cc2c[nH]c3ccccc23)NC(=O)[C@H](CC(=O)O)NC(=O)[C@H](Cc2ccc(C(=O)O)cc2)NC(=O)[C@H](Cc2cnc[nH]2)NC(=O)CSC[C@@H](C(=O)N[C@@H](CCN)C(=O)NCCOCCOCC(=O)N[C@@H](CCC(=O)NCCCCCCCCCCCCCCC(=O)O)C(=O)O)NC(=O)[C@H](CCC(=O)O)NC(=O)[C@H](C(C)(C)O)NC(=O)[C@H](CC2CCCCC2)NC(=O)[C@H](CCN)NC(=O)[C@@H](CC(C)C)NC(=O)[C@H](C)N(C)C1=O (stereo partly drawn) [Example 2633] ({CH2CO}-H[Phe(4-COOH)]DWV[Bip][Ile(3ξ)][NMeA][dL][Dab][Cha][Val(3-OH)]EC[Dab][AEEA]E(NH(CH2)14COOH)-OH; thioether N-14) is 2.1-fold lower in IC50: 0.435 µM for the first, 0.207 µM for the second. The second is the more potent here.
